Experimental data taken from article PMC6804135, “Comparative Study of Aryl O-, C-, and S-Mannopyranosides as Potential Adhesion Inhibitors toward Uropathogenic E. coli FimH” (Molecules, 2019).
Like-named read-outs stand apart in the source and are kept apart here.

How the values were obtained:
E. coli FimH [1] = target: T1, E. coli FimH (Escherichia coli, UniProt Q1R2J4); test: SPR kinetic analysis of FimH against immobilized 6-aminohexyl α-D-mannopyranoside (4); format: binding; design: The FimH residues 1-158 were isolated from the E. coli strain UTI89; made in house; conditions: for Kd: KD = koff/kon
Procedure: First, the equilibrium dissociation constant (KD) of FimH against immobilized 6-aminohexyl α-D-mannopyranoside (4) was determined. The ligand 6-aminohexyl α-D-mannopyranoside (10 mM in H2O) was immobilized via standard amine carbodiimide coupling chemistry (and blocking with ethanolamine as per the manufacturer’s procedure) to obtain 364 response units (RU) (see sensorgram in SI). The reference channel was treated similarly without ligand. A concentration series of the analyte FimH (1024 to 8 nM in running buffer, 2-fold dilutions) was then injected over the surface (700 s association time; 1200 s dissociation time; 30 μL/min flow rate; 25 °C temperature; running buffer: PBS pH 7.45, 3 mM EDTA supplemented with 0.005% Tween-20; regeneration: 30 s of 10 mM Glycine pH 1.5) and the response was double-referenced by subtracting the reference channel and the response with no FimH (running buffer only). Since equilibrium could not be reached during injection, KD was obtained from the extracted kinetic rate constants (KD = koff / kon) from a non-linear globally fitted 1:1 Langmuir binding isotherm containing a mass transfer constant (tc) and locally fitted refractive index constant (RI) (Biacore T200 evaluation software v1.0, GE Healthcare Life Sciences) of the obtained sensorgrams.

E. coli FimH [2] = target: T1, E. coli FimH; test: Previously reported SPR Kd against FimH; format: binding; design: The FimH residues 1-158 were isolated from the E. coli strain UTI89; made in house; conditions: 5 versus 7; from Kd values of ref 18
E. coli FimH [3] = target: T1, E. coli FimH; test: SPR solution affinity (competition) of ligands for FimH on immobilized 6-aminohexyl α-D-mannopyranoside; format: binding; design: The FimH residues 1-158 were isolated from the E. coli strain UTI89; made in house; conditions: for Relative Potency: relative to MeαMan (1) = 1; for ΔG°: from SPR Kd
Text: To this end, we first immobilized 6-aminohexyl α-D-mannopyranoside (4) on the CM5 gold chip using the conventional carbodiimide method to which we allowed FimH to bind with and without our competitive inhibitors (see sensorgram of 4 in the SI). The equilibrium dissociation constant (Kd) of the interaction was then normalized, the data sets are illustrated in Figure 5 and values given in Table 1 (see experimental details). This modification from the previous protocol using 8-aminooctyl α-D-mannoside was found much more practical and reliable given its very high affinity to FimH which made the gold chip regeneration from sample to sample too complicated (very slow koff).
SPR Solution Affinity of Ligands for the E. coli FimH Adhesin
Second, the equilibrium dissociation constants (KD) of FimH against the compounds of interest were determined by measuring the amount of free FimH in a series of concentrations of the compounds of interest at a constant concentration of FimH (close to the Kd of FimH: 6-aminohexyl α-D-mannopyranoside) after equilibrium in solution. A concentration series of the ligand of interest (65536 to 0.5 nM in running buffer, 2-fold dilutions) was equilibrated overnight with analyte FimH (40 nM) and then injected over the previous ligand 6-aminohexyl α-D-mannopyranoside-immobilized surface (300 s association time; 300 s dissociation time; 30 μL/min flow rate; 25 °C temperature; running buffer: 5% DMSO, PBS pH 7.45, 3 mM EDTA supplemented with 0.05% Tween-20; regeneration: 30 s of 10 mM Glycine pH 1.5) and the response was single-referenced by subtracting the reference channel and solvent corrected with a DMSO calibration curve. Since equilibrium could not be reached during injection, the responses (free [FimH], Y-axis) at the end of the injections were normalized with the response from FimH only ([compound of interest] = 0) and then plotted over the compounds of interest concentrations (X-axis).

E. coli FimH [4] = target: T1, E. coli FimH; design: The FimH residues 1-158 were isolated from the E. coli strain UTI89; made in house; conditions: read-out: Kd (SPR), cited from earlier work
E. coli FimH [5] = target: T1, E. coli FimH; design: The FimH residues 1-158 were isolated from the E. coli strain UTI89; made in house; conditions: read-out: IC50 (SPR); cited from earlier work
E. coli FimH [6] = target: T1, E. coli FimH; conditions: from IC50 values of ref 20

NCCCCCCO[C@H]1O[C@H](CO)[C@@H](O)[C@H](O)[C@@H]1O [Compound 4, 6-aminohexyl α-D-mannopyranoside]
Kd (E. coli FimH [1]; KD, fitted constant): 38.6 nM
Kd (E. coli FimH [1]; Kd, immobilized ligand 4, FimH as analyte, 25 °C, PBS pH 7.45): 38.58 ± 0.11 nM
dissociation rate constant (koff) (E. coli FimH [1]; fitted constant (dissociation rate), 1:1 Langmuir with mass transfer): 2,06E-04 1/s
kon (E. coli FimH [1]; read-out: ka): 5340 M⁻¹ s⁻¹
Relative Potency (E. coli FimH [1]; relative to MeαMan (1) = 1, immobilized ligand 4): 12

OCC1OC(OCC=Cc2ccc(-c3ccccc3)cc2)C(O)C(O)C1O (stereo not shown) [Compound 5]
fold better Kd than 7 (E. coli FimH [2]): 135 fold
Kd (E. coli FimH [3]): 19.9 ± 1.22 nM
Relative Potency (E. coli FimH [3]): 24
Kd (E. coli FimH [4]): 3 nM

OCC1OC(CC=Cc2ccc(-c3ccccc3)cc2)C(O)C(O)C1O (stereo not shown) [Compound 6]
Kd (E. coli FimH [3]): 11.4 ± 0.63 nM
Relative Potency (E. coli FimH [3]): 42

OC[C@H]1O[C@H](OCC#Cc2ccc(-c3ccccc3)cc2)[C@@H](O)[C@@H](O)[C@@H]1O [Compound 7]
Kd (E. coli FimH [4]): 405 nM

OCC1OC(SCC=Cc2ccc(-c3ccccc3)cc2)C(O)C(O)C1O [Compound 12, (2E)-3-(1,1’-biphenyl-2-propen-1-yl) 1-thio-α-D-mannopyranoside]
Kd (E. coli FimH [3]): 94.4 ± 6.2 nM
difference in respective Kds between 5 and 12 (E. coli FimH [3]; O-linked 5 versus S-linked 12): about 5 fold
Relative Potency (E. coli FimH [3]): 5

CCCCCCCO[C@H]1O[C@H](CO)[C@@H](O)[C@H](O)[C@@H]1O [HeptylαMan (3), Heptyl α-D-mannopyranoside]
Kd (E. coli FimH [3]): 2.37 ± 0.5 nM
ΔG° (E. coli FimH [3]): -11.76 kcal/mol
Relative Potency (E. coli FimH [3]): 200
IC50 (E. coli FimH [5]): 160 nM
Kd (E. coli FimH [4]; reported value for the golden standard): 5 nM

CO[C@H]1O[C@H](CO)[C@@H](O)[C@H](O)[C@@H]1O [MeαMan (1), Methyl α-D-mannopyranoside]
Kd (E. coli FimH [3]): 475 ± 5.7 nM
ΔG° (E. coli FimH [3]): -8.62 kcal/mol
Relative Potency (E. coli FimH [3]): 1

O=[N+]([O-])c1ccc(O[C@H]2O[C@H](CO)[C@@H](O)[C@H](O)[C@@H]2O)cc1 [PNPαMan (2), para-nitrophenyl α-D-mannopyranoside]
Kd (E. coli FimH [3]): 4.21 ± 0.72 nM
ΔG° (E. coli FimH [3]): -11.42 kcal/mol
Relative Potency (E. coli FimH [3]): 113

CCCCCCCS[C@H]1O[C@H](CO)[C@@H](O)[C@H](O)[C@@H]1O [S-linked heptyl α-D-mannopyranoside]
IC50 (E. coli FimH [5]): 547 nM
difference between O- and S-linked heptyl α-D-mannopyranosides (E. coli FimH [6]): 3.4 fold
